Patent US20220218690A1, “MONTELUKAST SALTS AND PHARMACEUTICAL COMPOSITIONS CONTAINING THE SAME” (GENETIC S.P.A., priority 2019, published 2022)
Entries after “also recorded” stand apart in the source; their conditions may differ.

How the values were obtained:
[1] = system: bronchial hyperreactivity
Experimental: (§1) Mouse model of asthma. Female BALB/c mice (8 weeks: Charles River) were sensitized through subcutaneous administration of Ovalbumin (100 μg dissolved in 400 μl of AlOH3 13.5 mg/ml) on days 0 and 8, on the twenty-first day the mice were stimulated by aerosolic administration of Ovalbumin (3% for twenty minutes). The mice were sacrificed after 48 hours and the bronchi used for the evaluation of bronchial reactivity at carbachol and salbutamol. The drugs were administered intraperitoneally prior to each exposure to the allergen. […] Pulmonary tissues were harvested and used for dosage of cytokines such as IL-4 and IL-13. In addition plasma levels of IgE were measured.

[2] = system: IgE; conditions: 0.3 mg/Kg; FIG. 18-A
Experimental: as §1

[3] = system: bronchial rings; conditions: Montelukast 1 μM, in vitro, FIG. 12
[4] = system: Paw mouse edema; conditions: 0.3 mg/kg intraperitoneal, 30 minutes before intraplantar carrageenin; FIG. 13

| SMILES | therapeutic efficacy in controlling the development of hyperreactivity to carbachol induced by sensitization ([1]; salt […] vs Formoterol 0.3 mg/kg and Montelukast 0.3 mg/kg (almost double molar dose), FIG. 16) | therapeutic efficacy in controlling the airway dysfunction induced by sensitization ([1]; salt at halved molar dose respect to single drugs) | IgE plasma levels [2] | effect of Montelukast preincubation on the bronchodilating response of Formoterol [3] | anti-inflammatory effect [4] |
| --- | --- | --- | --- | --- | --- |
| CC(C)(O)c1ccccc1CCC(SCC1(CC(=O)O)CC1)c1cccc(C=Cc2ccc3ccc(Cl)cc3n2)c1.COc1ccc(CC(C)NCC(O)c2ccc(O)c(NC=O)c2)cc1 (centres unmarked) [Montelukast formoterol salt, N-(2-(3-formamido-4-hydroxyphenyl)-2-hydroxyethyl)-1-(4-methoxy-phenyl)propan-2-aminium-2-(1-(((1-(3-(2-(7-chloroquinolin-2-yl)vinyl)-phenyl)-3-(2-(2-hydroxypropan-2-yl)phenyl)propyl)thio-)methyl)cyclopropyl)acetate] | significantly higher than the parent drugs Formoterol and Montelukast | significantly higher than Formoterol and Montelukast; also recorded: more efficiently reverses both airway effects | – | – | – |
| CC(C)(O)c1ccccc1CC[C@@H](SCC1(CC(=O)O)CC1)c1cccc(/C=C/c2ccc3ccc(Cl)cc3n2)c1 [Montelukast, (R,E)-2-(1-((1-(3-(2-(7-Chloroquinolin-2-yl)vinyl)phenyl)-3-(2-(2-hydroxypropan-2-yl)phenyl)propylthio)-methyl)cyclopropyl)acetic acid] | – | – | unaffected | does not alter the bronchodilating response of the Formoterol, preserves its efficacy | induces an anti-inflammatory effect |
